Results as given in ChEMBL document CHEMBL1125830, “Phosphonate-containing inhibitors of tyrosine-specific protein kinases” (J Med Chem, 1991).

Tests used:
[1] = biological target: Epidermal growth factor receptor (Homo sapiens, UniProt P00533); assay: Inhibition of Epidermal growth factor receptor autophosphorylation in A431 cell membranes
[2] = biological target: Insulin receptor (Homo sapiens, UniProt P06213); assay: Inhibition of insulin receptor autophosphorylation
Insulin receptor, sequence (P06213 28-758 limits assumed): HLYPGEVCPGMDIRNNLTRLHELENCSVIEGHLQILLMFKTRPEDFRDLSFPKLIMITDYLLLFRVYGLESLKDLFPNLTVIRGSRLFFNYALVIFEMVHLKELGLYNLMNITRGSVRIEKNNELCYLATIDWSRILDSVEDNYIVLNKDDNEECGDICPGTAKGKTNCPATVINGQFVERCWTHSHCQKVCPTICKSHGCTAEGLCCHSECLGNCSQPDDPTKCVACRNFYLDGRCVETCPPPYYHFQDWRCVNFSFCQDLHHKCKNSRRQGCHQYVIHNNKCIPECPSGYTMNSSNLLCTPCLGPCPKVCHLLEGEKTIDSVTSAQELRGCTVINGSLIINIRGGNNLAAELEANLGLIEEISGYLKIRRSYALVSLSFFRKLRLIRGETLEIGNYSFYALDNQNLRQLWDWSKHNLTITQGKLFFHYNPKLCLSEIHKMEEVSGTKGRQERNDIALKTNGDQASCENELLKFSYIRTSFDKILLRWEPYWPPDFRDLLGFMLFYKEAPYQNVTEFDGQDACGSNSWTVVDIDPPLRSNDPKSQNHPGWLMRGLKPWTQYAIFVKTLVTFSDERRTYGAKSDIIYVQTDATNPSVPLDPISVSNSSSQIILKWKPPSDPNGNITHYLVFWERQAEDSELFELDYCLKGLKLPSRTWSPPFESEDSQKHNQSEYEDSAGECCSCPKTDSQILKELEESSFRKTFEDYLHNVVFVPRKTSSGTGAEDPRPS
Insulin receptor, sequence (P06213 763-1382 limits assumed): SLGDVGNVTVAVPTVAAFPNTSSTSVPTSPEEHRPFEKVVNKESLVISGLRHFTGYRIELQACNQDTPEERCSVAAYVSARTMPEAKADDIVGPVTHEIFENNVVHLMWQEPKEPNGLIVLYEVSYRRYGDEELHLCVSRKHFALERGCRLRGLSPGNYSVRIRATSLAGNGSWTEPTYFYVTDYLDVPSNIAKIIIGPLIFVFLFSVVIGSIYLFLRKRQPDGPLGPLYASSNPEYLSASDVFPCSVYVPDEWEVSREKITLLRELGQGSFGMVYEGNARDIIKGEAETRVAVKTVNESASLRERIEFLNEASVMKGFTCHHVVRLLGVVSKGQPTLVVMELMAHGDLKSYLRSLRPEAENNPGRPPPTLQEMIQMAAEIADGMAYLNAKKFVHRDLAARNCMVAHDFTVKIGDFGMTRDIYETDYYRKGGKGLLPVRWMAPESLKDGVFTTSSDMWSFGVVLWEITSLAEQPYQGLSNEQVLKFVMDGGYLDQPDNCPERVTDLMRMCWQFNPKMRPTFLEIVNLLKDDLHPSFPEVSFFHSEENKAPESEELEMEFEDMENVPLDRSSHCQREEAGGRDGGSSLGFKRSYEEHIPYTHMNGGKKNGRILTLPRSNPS

Epidermal growth factor receptor, sequence (P00533 whole entry): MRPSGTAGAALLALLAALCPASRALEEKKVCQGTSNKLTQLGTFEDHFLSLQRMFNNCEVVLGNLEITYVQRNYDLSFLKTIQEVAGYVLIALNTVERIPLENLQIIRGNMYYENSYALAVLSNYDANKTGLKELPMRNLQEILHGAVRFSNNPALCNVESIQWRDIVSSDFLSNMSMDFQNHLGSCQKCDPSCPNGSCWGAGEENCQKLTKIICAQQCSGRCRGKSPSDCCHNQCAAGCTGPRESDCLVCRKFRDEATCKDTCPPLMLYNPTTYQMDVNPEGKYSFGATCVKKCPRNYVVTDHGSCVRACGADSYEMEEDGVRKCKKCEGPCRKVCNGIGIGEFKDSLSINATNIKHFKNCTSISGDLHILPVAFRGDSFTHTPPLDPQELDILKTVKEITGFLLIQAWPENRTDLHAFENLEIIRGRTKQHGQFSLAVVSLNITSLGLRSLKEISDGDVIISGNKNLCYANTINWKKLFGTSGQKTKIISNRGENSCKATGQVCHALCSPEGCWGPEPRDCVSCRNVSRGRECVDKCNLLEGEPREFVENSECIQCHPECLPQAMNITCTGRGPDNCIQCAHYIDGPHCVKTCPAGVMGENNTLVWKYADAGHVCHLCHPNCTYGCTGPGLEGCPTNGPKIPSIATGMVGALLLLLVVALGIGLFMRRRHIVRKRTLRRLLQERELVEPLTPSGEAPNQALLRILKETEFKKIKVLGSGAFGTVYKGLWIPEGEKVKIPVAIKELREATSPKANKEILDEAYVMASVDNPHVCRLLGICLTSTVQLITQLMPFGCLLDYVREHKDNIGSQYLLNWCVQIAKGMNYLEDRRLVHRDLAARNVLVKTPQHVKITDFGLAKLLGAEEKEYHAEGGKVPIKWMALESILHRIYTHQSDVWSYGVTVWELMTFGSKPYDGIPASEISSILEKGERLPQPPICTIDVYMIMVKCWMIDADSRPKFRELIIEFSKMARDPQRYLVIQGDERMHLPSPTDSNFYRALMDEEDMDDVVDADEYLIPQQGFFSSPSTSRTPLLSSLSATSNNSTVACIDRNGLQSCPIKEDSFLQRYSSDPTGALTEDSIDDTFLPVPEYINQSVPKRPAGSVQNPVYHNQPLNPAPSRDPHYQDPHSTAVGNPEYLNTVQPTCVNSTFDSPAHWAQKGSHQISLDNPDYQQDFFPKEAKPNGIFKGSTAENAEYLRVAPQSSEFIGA

O=P(O)(O)C(O)c1ccc2ccccc2c1 (configuration not stated)
IC50 [1]: 250 µM | IC50 [2]: 200 µM
